Experimental data as given in US8003785B2 (Takeda Pharmaceutical Company Limited, priority 2008, dated 2011).

target: T1, PLK1 (Homo sapiens, UniProt P53350); experiment: Biochemical Characterization Assay: HTRF kinase assay, GST-PLK1 phosphorylation of GST-p53; conditions: GST-PLK1, GST-p53 substrate
T1 construct: Full-length, active GST-PLK1 is purified from Sf9 insect cells; made in house; host or cells: Sf9 insect cells
Outline: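 Full-length active GST-PLK1 (Sf9, 3 ug/mL) phosphorylated full-length GST-p53 (E. coli) in Kinase Assay Buffer for 35 min at 37 °C. Stopped with EDTA; phospho-p53 detected by HTRF with anti-phospho-p53, Eu-anti-rabbit and APC-anti-GST antibodies.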

T1 sequence (P53350 whole entry): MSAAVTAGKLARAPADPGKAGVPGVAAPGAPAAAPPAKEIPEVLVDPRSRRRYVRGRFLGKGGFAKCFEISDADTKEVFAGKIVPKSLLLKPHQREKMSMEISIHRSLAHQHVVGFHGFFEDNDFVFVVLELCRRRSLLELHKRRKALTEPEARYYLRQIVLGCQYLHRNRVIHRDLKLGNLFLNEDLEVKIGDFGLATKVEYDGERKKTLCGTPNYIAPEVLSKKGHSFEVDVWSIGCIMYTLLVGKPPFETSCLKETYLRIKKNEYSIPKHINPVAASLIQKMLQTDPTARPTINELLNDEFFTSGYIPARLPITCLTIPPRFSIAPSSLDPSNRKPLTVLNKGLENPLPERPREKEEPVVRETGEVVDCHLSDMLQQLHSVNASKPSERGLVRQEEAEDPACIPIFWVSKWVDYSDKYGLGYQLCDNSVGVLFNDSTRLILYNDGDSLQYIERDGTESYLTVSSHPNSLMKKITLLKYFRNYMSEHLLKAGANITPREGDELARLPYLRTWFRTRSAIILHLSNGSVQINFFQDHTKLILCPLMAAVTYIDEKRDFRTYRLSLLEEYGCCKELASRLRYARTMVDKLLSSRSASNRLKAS

SMILES	IC50
CCc1cc(C(=O)NCCCN(C)C)ccc1Nc1ncc2c(n1)N(C1CCCC1)CC(F)(F)C(=O)N2C [Example I-199, 4-(9-cyclopentyl-7,7-difluoro-5-methyl-6-oxo-6,7,8,9-tetrahydro-5H-pyrimido[4,5-b][1,4]diazepin-2-ylamino)-N-(3-dimethylamino-propyl)-3-ethyl-benzamide]	1 to 50 nM
CCc1cc(C(=O)NC)ccc1Nc1ncc2c(n1)N(C1CCCC1)CC(F)(F)C(=O)N2C [Example I-200, 4-(9-cyclopentyl-7,7-difluoro-5-methyl-6-oxo-6,7,8,9-tetrahydro-5H-pyrimido[4,5-b][1,4]diazepin-2-ylamino)-3-ethyl-N-methyl-benzamide]	1 to 50 nM
CCc1cc(C(N)=O)ccc1Nc1ncc2c(n1)N(C1CCCC1)CC(F)(F)C(=O)N2C [Example I-203]	1 to 50 nM
CN1C(=O)C(F)(F)CN(C2CCCC2)c2nc(Nc3ccc(C(=O)NC4CCOCC4)cc3C(F)(F)F)ncc21 [Example I-207, 4-(9-cyclopentyl-7,7-difluoro-5-methyl-6-oxo-6,7,8,9-tetrahydro-5H-pyrimido[4,5-b][1,4]diazepin-2-ylamino)-N-(tetrahydro-pyran-4-yl)-3-trifluoromethyl-benzamide]	51 to 500 nM
CN(C)CCNC(=O)c1ccc(Nc2ncc3c(n2)N(C2CCCC2)CC(F)(F)C(=O)N3C)c(C(F)(F)F)c1 [Example I-208, 4-(9-cyclopentyl-7,7-difluoro-5-methyl-6-oxo-6,7,8,9-tetrahydro-5H-pyrimido[4,5-b][1,4]diazepin-2-ylamino)-N-(2-dimethylamino-ethyl)-3-trifluoromethyl-benzamide]	51 to 500 nM
CN(C)CCCNC(=O)c1ccc(Nc2ncc3c(n2)N(C2CCCC2)CC(F)(F)C(=O)N3C)c(C(F)(F)F)c1 [Example I-209, 4-(9-cyclopentyl-7,7-difluoro-5-methyl-6-oxo-6,7,8,9-tetrahydro-5H-pyrimido[4,5-b][1,4]diazepin-2-ylamino)-N-(3-dimethylamino-propyl)-3-trifluoromethyl-benzamide]	1 to 50 nM
CNC(=O)c1ccc(Nc2ncc3c(n2)N(C2CCCC2)CC(F)(F)C(=O)N3C)c(C(F)(F)F)c1 [Example I-210, 4-(9-cyclopentyl-7,7-difluoro-5-methyl-6-oxo-6,7,8,9-tetrahydro-5H-pyrimido[4,5-b][1,4]diazepin-2-ylamino)-N-methyl-3-trifluoromethyl-benzamide]	51 to 500 nM
CN1C(=O)C(F)(F)CN(C2CCCC2)c2nc(Nc3ccc(C(=O)NC4CCNCC4)cc3C(F)(F)F)ncc21 [Example I-212, 4-(9-cyclopentyl-7,7-difluoro-5-methyl-6-oxo-6,7,8,9-tetrahydro-5H-pyrimido[4,5-b][1,4]diazepin-2-ylamino)-N-piperidin-4-yl-3-trifluoromethyl-benzamide]	1 to 50 nM
CN1C(=O)C(F)(F)CN(C2CCCC2)c2nc(Nc3ccc(C(N)=O)cc3C(F)(F)F)ncc21 [Example I-213, 4-(9-cyclopentyl-7,7-difluoro-5-methyl-6-oxo-6,7,8,9-tetrahydro-5H-pyrimido[4,5-b][1,4]diazepin-2-ylamino)-3-trifluoromethyl-benzamide]	51 to 500 nM
CCOc1cc(C(=O)NC2CCOCC2)ccc1Nc1ncc2c(n1)N(C1CCCC1)CC(F)(F)C(=O)N2C [Example I-217, 4-(9-cyclopentyl-7,7-difluoro-5-methyl-6-oxo-6,7,8,9-tetrahydro-5H-pyrimido[4,5-b][1,4]diazepin-2-ylamino)-3-ethoxy-N-(tetrahydro-pyran-4-yl)-benzamide]	1 to 50 nM
CCOc1cc(C(=O)NCCN(C)C)ccc1Nc1ncc2c(n1)N(C1CCCC1)CC(F)(F)C(=O)N2C [Example I-218, 4-(9-cyclopentyl-7,7-difluoro-5-methyl-6-oxo-6,7,8,9-tetrahydro-5H-pyrimido[4,5-b][1,4]diazepin-2-ylamino)-N-(2-dimethylamino-ethyl)-3-ethoxy-benzamide]	1 to 50 nM
CCOc1cc(C(=O)NCCCN(C)C)ccc1Nc1ncc2c(n1)N(C1CCCC1)CC(F)(F)C(=O)N2C [Example I-219, 4-(9-cyclopentyl-7,7-difluoro-5-methyl-6-oxo-6,7,8,9-tetrahydro-5H-pyrimido[4,5-b][1,4]diazepin-2-ylamino)-N-(3-dimethylamino-propyl)-3-ethoxy-benzamide]	1 to 50 nM
CCOc1cc(C(=O)NC)ccc1Nc1ncc2c(n1)N(C1CCCC1)CC(F)(F)C(=O)N2C [Example I-220, 4-(9-cyclopentyl-7,7-difluoro-5-methyl-6-oxo-6,7,8,9-tetrahydro-5H-pyrimido[4,5-b][1,4]diazepin-2-ylamino)-3-ethoxy-N-methyl-benzamide]	1 to 50 nM
CCOc1cc(C(=O)NC2CCNCC2)ccc1Nc1ncc2c(n1)N(C1CCCC1)CC(F)(F)C(=O)N2C [Example I-222, 4-(9-cyclopentyl-7,7-difluoro-5-methyl-6-oxo-6,7,8,9-tetrahydro-5H-pyrimido[4,5-b][1,4]diazepin-2-ylamino)-3-ethoxy-N-piperidin-4-yl-benzamide]	1 to 50 nM
CCOc1cc(C(N)=O)ccc1Nc1ncc2c(n1)N(C1CCCC1)CC(F)(F)C(=O)N2C [Example I-223, 4-(9-cyclopentyl-7,7-difluoro-5-methyl-6-oxo-6,7,8,9-tetrahydro-5H-pyrimido[4,5-b][1,4]diazepin-2-ylamino)-3-ethoxy-benzamide]	1 to 50 nM
CN1C(=O)C(F)(F)CN(C2CCCC2)c2nc(Nc3ccc(C(=O)NC4CCOCC4)cc3F)ncc21 [Example I-225, 4-(9-cyclopentyl-7,7-difluoro-5-methyl-6-oxo-6,7,8,9-tetrahydro-5H-pyrimido[4,5-b][1,4]diazepin-2-ylamino)-3-fluoro-N-(tetrahydro-pyran-4-yl)-benzamide]	1 to 50 nM
CN(C)CCNC(=O)c1ccc(Nc2ncc3c(n2)N(C2CCCC2)CC(F)(F)C(=O)N3C)c(F)c1 [Example I-226, 4-(9-cyclopentyl-7,7-difluoro-5-methyl-6-oxo-6,7,8,9-tetrahydro-5H-pyrimido[4,5-b][1,4]diazepin-2-ylamino)-N-(2-dimethylamino-ethyl)-3-fluoro-benzamide]	1 to 50 nM
CN(C)CCCNC(=O)c1ccc(Nc2ncc3c(n2)N(C2CCCC2)CC(F)(F)C(=O)N3C)c(F)c1 [Example I-227, 4-(9-cyclopentyl-7,7-difluoro-5-methyl-6-oxo-6,7,8,9-tetrahydro-5H-pyrimido[4,5-b][1,4]diazepin-2-ylamino)-N-(3-dimethylamino-propyl)-3-fluoro-benzamide]	1 to 50 nM

Second part, the molecule after the results:

IC50	SMILES
51 to 500 nM	CCc1cc(C(=O)NC2CCN(C(=O)OC(C)(C)C)CC2)ccc1Nc1ncc2c(n1)N(C1CCCC1)CC(F)(F)C(=O)N2C [Example I-201, 4-[4-(9-cyclopentyl-7,7-difluoro-5-methyl-6-oxo-6,7,8,9-tetrahydro-5H-pyrimido[4,5-b][1,4]diazepin-2-ylamino)-3-ethyl-benzoylamino]-piperidine-1-carboxylic acid tert-butyl ester]
1 to 50 nM	CCc1cc(C(=O)NC2CCNCC2)ccc1Nc1ncc2c(n1)N(C1CCCC1)CC(F)(F)C(=O)N2C [Example I-202, 4-(9-cyclopentyl-7,7-difluoro-5-methyl-6-oxo-6,7,8,9-tetrahydro-5H-pyrimido[4,5-b][1,4]diazepin-2-ylamino)-3-ethyl-N-piperidin-4-yl-benzamide]
1 to 50 nM	CCN1CCC(NC(=O)c2ccc(Nc3ncc4c(n3)N(C3CCCC3)CC(F)(F)C(=O)N4C)c(C(F)(F)F)c2)CC1 [Example I-206, 4-(9-cyclopentyl-7,7-difluoro-5-methyl-6-oxo-6,7,8,9-tetrahydro-5H-pyrimido[4,5-b][1,4]diazepin-2-ylamino)-N-(1-ethyl-piperidin-4-yl)-3-trifluoromethyl-benzamide]
51 to 500 nM	CN1C(=O)C(F)(F)CN(C2CCCC2)c2nc(Nc3ccc(C(=O)NC4CCN(C(=O)OC(C)(C)C)CC4)cc3C(F)(F)F)ncc21 [Example I-211, 4-[4-(9-cyclopentyl-7,7-difluoro-5-methyl-6-oxo-6,7,8,9-tetrahydro-5H-pyrimido[4,5-b][1,4]diazepin-2-ylamino)-3-trifluoromethyl-benzoylamino]-piperidine-1-carboxylic acid tert-butyl ester]
1 to 50 nM	CCOc1cc(C(=O)NC2CCN(C)CC2)ccc1Nc1ncc2c(n1)N(C1CCCC1)CC(F)(F)C(=O)N2C [Example I-215, 4-(9-cyclopentyl-7,7-difluoro-5-methyl-6-oxo-6,7,8,9-tetrahydro-5H-pyrimido[4,5-b][1,4]diazepin-2-ylamino)-3-ethoxy-N-(1-methyl-piperidin-4-yl)-benzamide]
1 to 50 nM	CCOc1cc(C(=O)NC2CCN(CC)CC2)ccc1Nc1ncc2c(n1)N(C1CCCC1)CC(F)(F)C(=O)N2C [Example I-216, 4-(9-cyclopentyl-7,7-difluoro-5-methyl-6-oxo-6,7,8,9-tetrahydro-5H-pyrimido[4,5-b][1,4]diazepin-2-ylamino)-3-ethoxy-N-(1-ethyl-piperidin-4-yl)-benzamide]
51 to 500 nM	CCOc1cc(C(=O)NC2CCN(C(=O)OC(C)(C)C)CC2)ccc1Nc1ncc2c(n1)N(C1CCCC1)CC(F)(F)C(=O)N2C [Example I-221, 4-[4-(9-cyclopentyl-7,7-difluoro-5-methyl-6-oxo-6,7,8,9-tetrahydro-5H-pyrimido[4,5-b][1,4]diazepin-2-ylamino)-3-ethoxy-benzoylamino]-piperidine-1-carboxylic acid tert-butyl ester]
1 to 50 nM	CCN1CCC(NC(=O)c2ccc(Nc3ncc4c(n3)N(C3CCCC3)CC(F)(F)C(=O)N4C)c(F)c2)CC1 [Example I-224, 4-(9-cyclopentyl-7,7-difluoro-5-methyl-6-oxo-6,7,8,9-tetrahydro-5H-pyrimido[4,5-b][1,4]diazepin-2-ylamino)-N-(1-ethyl-piperidin-4-yl)-3-fluoro-benzamidemide]
